Source: the supplement of paper PMC7840683
± gives the standard deviation of the averaged measurements.

Test system: HepaRG
Assay: LDH release cytotoxicity, % of total lysis control; higher = more cytotoxic
Conditions: 48 h
Procedure, shortened: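 The CytoTox-ONE kit was used to read LDH in 50 µL spent medium as resorufin fluorescence on a Tecan Safire, with 0.1% Triton X added to total lysis wells. Beforehand, single-lot HepaRG cells on collagen I-coated 96-well plates had been exposed in duplicate for 48 h to eight-point half-log series (top 100 µM) in serum-free induction medium containing 0.5% DMSO. Percent cytotoxicity was normalized against on-plate vehicle and total lysis controls and averaged over duplicates.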

O=C1C2CC=CCC2C(=O)N1SC(Cl)(Cl)Cl (configuration not stated) [Captan]
Conditions	LDH release cytotoxicity [%]
0.03115 µM	-0.761 ± 0.69
0.0985 µM	-0.69 ± 1
0.311484 µM	-1.02 ± 0.74
0.985 µM	-1.31 ± 0.14
3.11484 µM	-1.78 ± 0.61
9.85 µM	-0.651 ± 0.36
31.1484 µM	0.632 ± 0.25
98.5 µM	27.6 ± 5.5

c1ccc(C2CO2)cc1 (configuration not stated) [Styrene oxide]
Conditions	LDH release cytotoxicity [%]
0.03162 µM	-1.36 ± 0.96
0.1 µM	-1.15 ± 0.44
0.3162278 µM	-1.2 ± 0.66
1 µM	-1.64 ± 0.41
3.16228 µM	-1.36 ± 0.55
10 µM	-0.823 ± 1.1
31.6228 µM	-0.175 ± 0.79
100 µM	0.415 ± 0.9

CC(C)CCCCCCOC(=O)c1ccc(C(=O)OCCCCCCC(C)C)c(C(=O)OCCCCCCC(C)C)c1 [Triisononyl trimellitate]
Conditions	LDH release cytotoxicity [%]
0.031623 µM	-0.391 ± 0.73
0.1 µM	-0.474 ± 2.8
0.316228 µM	-1.59 ± 0.86
1 µM	-2.21 ± 1.3
3.16228 µM	-2.67 ± 0.91
10 µM	-1.83 ± 1.2
31.6228 µM	-0.993 ± 1.1
100 µM	0.476 ± 0.49

CCSC(=O)N(CC)C1CCCCC1 [Cycloate]
Conditions	LDH release cytotoxicity [%]
0.03162 µM	-0.645 ± 0.33
0.1 µM	-0.297 ± 0.34
0.3162278 µM	-0.471 ± 0.49
1 µM	-0.678 ± 0.68
3.16228 µM	0.089 ± 0.45
10 µM	0.922 ± 0.035
31.6228 µM	0.446 ± 0.0094
100 µM	1.91 ± 0.022

Cc1cc(C2CC2)nc(Nc2ccccc2)n1 [Cyprodinil]
Conditions	LDH release cytotoxicity [%]
0.03162 µM	-1.37 ± 0.96
0.1 µM	-0.753 ± 0.69
0.3162278 µM	-0.874 ± 1.2
1 µM	-1.16 ± 0.7
3.16228 µM	-0.24 ± 0.55
10 µM	-0.264 ± 0.58
31.6228 µM	0.71 ± 0.5
100 µM	11.3 ± 0.15

CCCCC(O)(Cn1cncn1)c1ccc(Cl)cc1Cl (configuration not stated) [Hexaconazole]
Conditions	LDH release cytotoxicity [%]
0.03162 µM	-0.998 ± 0.92
0.1 µM	-0.668 ± 1.4
0.3162278 µM	0.00223 ± 0.062
1 µM	-0.913 ± 0.57
3.16228 µM	-0.0659 ± 0.044
10 µM	0.28 ± 0.96
31.6228 µM	-0.401 ± 0.24
100 µM	10.1 ± 1.3

CCCN(CCOc1c(Cl)cc(Cl)cc1Cl)C(=O)n1ccnc1 [Prochloraz]
Conditions	LDH release cytotoxicity [%]
0.031623 µM	0.136 ± 1.1
0.1 µM	-2.541 ± 0.013
0.316228 µM	-3.11 ± 1.4
1 µM	-2.56 ± 0.4
3.16228 µM	-0.716 ± 0.26
10 µM	-0.855 ± 0.78
31.6228 µM	13.7 ± 0.66
100 µM	64.6 ± 0.66

CCCN(C1CCN(C(=O)C2CCNCC2)CC1)C1CCc2ccc(OC)cc2C1 (configuration not stated)
Conditions	LDH release cytotoxicity [%]
0.03162 µM	-0.976 ± 1.3
0.1 µM	-1.04 ± 1.4
0.3162278 µM	-2.19 ± 0.35
1 µM	-1.39 ± 0.37
3.16228 µM	-1.79 ± 0.61
10 µM	-1.52 ± 0.12
31.6228 µM	0.507 ± 0.4
100 µM	45.7 ± 1.9

OCC1CO1 (configuration not stated) [Glycidol]
Conditions	LDH release cytotoxicity [%]
0.03162 µM	-0.883 ± 0.53
0.1 µM	-1.28 ± 0.094
0.3162278 µM	-0.409 ± 0.45
1 µM	-1.25 ± 0.47
3.16228 µM	-0.452 ± 0.0064
10 µM	-0.678 ± 0.18
31.6228 µM	-0.342 ± 0.43
100 µM	1.57 ± 0.042

C=CCc1cc(S(=O)(=O)c2ccc(O)c(CC=C)c2)ccc1O [4,4'-Sulfonylbis[2-(prop-2-en-1-yl)phenol]]
Conditions	LDH release cytotoxicity [%]
0.03162 µM	-0.87 ± 0.11
0.1 µM	-2.88 ± 0.65
0.3162278 µM	-1.86 ± 0.44
1 µM	-2.39 ± 0.7
3.16228 µM	-2.01 ± 0.34
10 µM	-1.55 ± 0.91
31.6228 µM	-1.16 ± 0.93
100 µM	0.193 ± 0.0097

CC12CCC(=O)C=C1CCC1C2C(O)CC2(C)C(C(=O)CO)CCC12 (configuration not stated) [Corticosterone]
Conditions	LDH release cytotoxicity [%]
0.03162 µM	-1.65 ± 0.13
0.1 µM	-0.683 ± 1.9
0.3162278 µM	0.128 ± 1.4
1 µM	-1.19 ± 0.62
3.16228 µM	-0.76 ± 0.84
10 µM	-0.609 ± 0.51
31.6228 µM	-0.274 ± 0.58
100 µM	1.02 ± 0.92

O=C(NO)C1(NS(=O)(=O)c2ccc(Oc3ccc(F)cc3)cc2)CCOCC1
Conditions	LDH release cytotoxicity [%]
0.03162 µM	0.225 ± 0.2
0.1 µM	-0.912 ± 0.77
0.3162278 µM	-0.649 ± 0.23
1 µM	-0.54 ± 0.41
3.16228 µM	-0.318 ± 0.55
10 µM	-0.00829 ± 0.11
31.6228 µM	-1.25 ± 0.49
100 µM	10.5 ± 1.4

CCCCCCCCCCCC(=O)OC [Methyl dodecanoate]
Conditions	LDH release cytotoxicity [%]
0.03162 µM	0.879 ± 1.4
0.1 µM	-1.07 ± 0.59
0.3162278 µM	-1.35 ± 0.79
1 µM	-1.18 ± 0.72
3.16228 µM	-0.971 ± 0.58
10 µM	-0.971 ± 1.3
31.6228 µM	-1.41 ± 0.49
100 µM	0.025 ± 0.27

CC(C)N1C(=O)N(c2ccccc2)CSC1=NC(C)(C)C [Buprofezin]
Conditions	LDH release cytotoxicity [%]
0.03162 µM	-1.37 ± 0.98
0.1 µM	-1.93 ± 0.62
0.3162278 µM	-1.95 ± 0.58
1 µM	-2.46 ± 1.3
3.16228 µM	-2.17 ± 0.66
10 µM	-1.91 ± 0.48
31.6228 µM	-2.33 ± 0.99
100 µM	11.8 ± 0.29

CCCCC(CC)C(=O)O (configuration not stated) [2-Ethylhexanoic acid]
Conditions	LDH release cytotoxicity [%]
0.0327296 µM	-0.279 ± 0.2
0.1035 µM	-1.03 ± 0.49
0.327296 µM	-1.23 ± 0.14
1.035 µM	-1.42 ± 0.82
3.27296 µM	-1.45 ± 0.089
10.35 µM	-1.29 ± 0.7
32.729574 µM	-1.58 ± 0.37
103.5 µM	-0.99 ± 0.68

O=[N+]([O-])c1ccc(Cl)cc1 [1-Chloro-4-nitrobenzene]
Conditions	LDH release cytotoxicity [%]
0.03162 µM	-0.012 ± 0.35
0.1 µM	-0.728 ± 0.66
0.3162278 µM	0.037 ± 0.14
1 µM	-0.523 ± 0.12
3.16228 µM	-0.0534 ± 0.38
10 µM	0.685 ± 0.47
31.6228 µM	5.08 ± 0.88
100 µM	18 ± 1.8

O=S(=O)(O)C(F)(F)C(F)(F)C(F)(F)C(F)(F)C(F)(F)C(F)(F)C(F)(F)C(F)(F)F [Perfluorooctanesulfonic acid]
Conditions	LDH release cytotoxicity [%]
0.03162 µM	-1.36 ± 0.32
0.1 µM	-1.86 ± 0.5
0.3162278 µM	-1.14 ± 0.19
1 µM	-1.91 ± 0.49
3.16228 µM	-1.26 ± 0.23
10 µM	-2 ± 0.026
31.6228 µM	-0.893 ± 0.12
100 µM	19.6 ± 3.8

O=C(Nc1ccccc1)Nc1ccnc(Cl)c1 [Forchlorfenuron]
Conditions	LDH release cytotoxicity [%]
0.03162 µM	-0.561 ± 0.058
0.1 µM	-0.953 ± 0.64
0.3162278 µM	-0.719 ± 0.22
1 µM	-0.995 ± 0.79
3.16228 µM	-0.25 ± 0.84
10 µM	-0.369 ± 0.16
31.6228 µM	6.54 ± 0.27
100 µM	61.5 ± 5.7

CCC1CCC(NCc2cc3c(cc2OC)C2CC2C(=O)N3C)C(c2ccccc2)N1 (configuration not stated)
Conditions	LDH release cytotoxicity [%]
0.03162 µM	-1.16 ± 0.78
0.1 µM	-1.78 ± 0.18
0.3162278 µM	-0.445 ± 0.68
1 µM	-1.5 ± 1.7
3.16228 µM	-0.96 ± 1.1
10 µM	-0.794 ± 0.26
31.6228 µM	0.439 ± 0.24
100 µM	7.84 ± 0.41
